# Measured values published in US10159635B2, “Cosmetic and pharmaceutical uses of saccharides” (CURAPEL (SCOTLAND) LIMITED, priority 2012, dated 2018).
# How the values were obtained:
# [1] = tested on: interleukin-8 (IL-8) production by HaCaT keratinocytes; test: IL-8 ELISA on culture supernatant of keratinocytes; format: cell-based
# Procedure: Following an overnight coating of a flat-bottomed 96 well plate with an anti-IL-8 antibody, a 9-point IL-8 standard curve was generated using serial dilutions from a 2000 pg/ml IL-8 stock solution. These were cultured on the 96 well plate for 2 h along side culture supernatants derived from keratinocytes exposed to sugars. The plate was then washed and incubated for 2 h with an anti-IL-8 biotin-antibody before the plate was again washed and left for 20 min with a solution of streptavidin-HRP. After a final wash the plate was coated with a solution of tetramethyl benzidine forming a blue reaction product, the intensity of which relates to amount of IL-8 present in the original culture supernatant. This reaction was stopped using sulphuric acid turning the solution yellow which was then read on a microplate reader at […]. Unknown sample concentrations of IL-8 were determined using the standard curve.
# [2] = tested on: melanin in ex-vivo human skin; test: Masson Fontana melanin staining of ex-vivo human skin in organ culture; format: cell-based
# Procedure: Samples of full thickness ex-vivo human skin were obtained from elective plastic surgery procedures. […] Two concentrations of the NDO melibiose, 1.5 and 3.0% (w/v) were tested for their ability to reduce skin pigmentation by addition to the medium surrounding the cultured skin samples at day 1 and every time the medium was changed thereafter. As a control some skin samples were cultured under identical conditions apart from the […] of melibiose.
# At day 6, the skin samples were immersed in cryo-embedding medium and 5 μm sections cut and stained using the Masson Fontana assay. The principle of the Masson Fontana assay is that melanin granules reduce silver from ammoniacal silver nitrate solution to a visible metallic state. Information on the protocol for the Masson-Fontana Assay may be found in relevant laboratory handbooks, for example Lille RD, 1965, Histopathologic Technique and Practical Histochemistry, 3rd Ed 1965, the Blakiston Division, McGraw Hill Book Company, p 240, which is incorporated herein by reference.
# Following the fixation of cryosections of skin with ethanol/acetic acid, slides were heated in 0.5% ammoniacal silver nitrate solution using a microwave. Sections were then toned in 1% gold chloride, fixed in 5% sodium thiosulphate and counterstained with haematoxylin before mounting using DPEX. Melanin stain can then be visualised using light microscopy.
# Samples of full thickness ex-vivo human skin were obtained as described in Example 1 and were maintained in organ culture for 6 days. Two concentrations of the NDO melibiose, 25 mM and 50 mM, and two concentration of the NDO P95 (a 95% mixture of oligofructose, also known as fructooligosaccharides (FOS)), 25 mM and 50 mM, were tested for their ability to reduce skin pigmentation by addition to the medium surrounding the cultured skin samples at day 1 and every time the medium was changed thereafter. As a control some skin samples were cultured under identical conditions apart from the absence of NDO. […]
smiles,measurement,setting,value
OC[C@H]1O[C@H](OCC2O[C@@H](O)[C@H](O)[C@@H](O)[C@@H]2O)[C@H](O)[C@@H](O)[C@H]1O (some centres unmarked) [melibiose],constitutive (baseline) IL-8 secretion,"[1]; HaCaT keratinocytes, unstimulated, FIG. 4a",mildly dose-responsive suppression
same,IL-8 secretion in response to IL-1β stimulation,"[1]; keratinocytes stimulated with IL-1β, 5% melibiose, FIG. 4b",reduced to nearly control levels
same,"reduction in melanin staining (mean density, image analysis) in treated skin vs control","[2]; Example 1, ex-vivo human skin, 6 days culture, 25 mM or 50 mM melibiose, FIG. 2b",approximately 10%
same,"melanin in stained skin sections, treated vs untreated control","[2]; Example 1, full thickness ex-vivo human skin, 6 days organ culture, melibiose 1.5 and 3.0% (w/v) in medium, FIG. 2a",significant reduction in melanin
same,"mean density of melanin staining, treated skin vs control","[2]; Example 2, ex-vivo human skin, 6 days organ culture, 25 mM or 50 mM NDO in medium, FIG. 3",reduction in melanin staining
